Legend:
[1] = test system: inflammatory pulmonary infiltrate; test: I-124 PUH71 PET-CT, microdose study in patients (FIGS. 1-2); type: in vivo, human; settings: person with ovarian cancer; PET-CT 24 hours after intravenous injection of 9.3 mCi
Method: (§1) Positron emission tomography (PET) combined with X-ray computed tomography (CT) was performed using a state of the art integrated PET-CT scanner (Discovery DSTE™ General Electric). CT scans for attenuation correction and anatomic coregistration were performed prior to tracer-injection, using the following acquisition parameters: 140 kVp; 85 mA; pitch of 1.75:1; reconstructed slice thickness of 3.75 mm; 0.8 s per rotation. The CT protocol was designed for anatomic localization of tracer-signal and for attenuation correction, while minimizing radiation exposure. Each patient received ˜185 megabecquerel (MBq) [^124I]-PU-H71 by peripheral vein over two minutes. PET emission scans were acquired in two-dimensional mode starting at the mid-thighs moving toward the head, for 7.5 minutes per PET bed position. PET data were reconstructed using a standard ordered subset expected maximization iterative algorithm. Emission data were corrected for scatter, attenuation and decay. Clinical FDG PET-CT studies were performed according to standard methods using state of the art PET-CT scanners. [^124I]-PU-H71 scans were performed at 3-4 hrs, 20-24 hrs, 48-72 hours and, optionally, ˜168 hrs after tracer administration on the microdose [^124I]-PU-H71 PET-CT study.

[2] = test system: inflammatory pulmonary consolidation; test: I-124 PUH71 PET-CT, tracer mixed with a therapeutic dose of non-radioactive PUH71 (FIGS. 3-4); type: in vivo, human
Method: as §1
PU-PET images were taken 1.5, 4, 24 and 48-72 hrs after co-administration on the tracer mixed with a therapeutic dose of non-radioactive PUH71 in a total volume of […], co-infused intravenously over one hour. Patient were treated with PU-H71 at escalating dose levels determined by a modified continuous reassessment model. Each patient is treated with his or her assigned dose on day 1, 4, 8 and 11 of each 21 day cycle. Pre- and post-treatment biopsies were collected for correlative studies including LCMSMS quantification of PU-H71, with the latter obtained within 24 hours of their cycle 1, day 1 dose of PU-H71.

[3] = person with breast cancer, 6.5 mCi mixed with 35 mg non-radioactive PUH71, PET

Row | accumulation of tracer in inflammatory pulmonary infiltrate (apex of left lung) [1] | clearance of tracer from blood stream (void of activity within the cardiac atrium) [2, 3] | tracer retention in left ventricle myocardium [2, 3] | uptake relative to surrounding healthy tissues ([2]; diseased tissue, patients, PET) | blood clearance ([2]; patients, PET) | retention in the diseased tissue ([2]; patients, PET) | SMILES | accumulation and retention of tracer in inflammatory pulmonary consolidation (right lung) ([2]; person with breast cancer, 6.5 mCi mixed with 35 mg non-radioactive PUH71, immediately, 4 hours and 24 hours post-injection) | outcome of pulmonary consolidation on CT scan ([2]; two weeks after imaging, PUH71 35 mg twice a week for two weeks per three week cycle, together with antibiotic treatment and pleural fluid drainage)
1 | distinct accumulation | cleared from blood stream | distinct tracer retention | – | – | – | CC(C)NCCCn1c(Sc2cc3c(cc2[124I])OCO3)nc2c(N)ncnc21 [I-124 PUH71] | distinct accumulation and sustained retention | –
2 | – | – | – | high uptake | rapid blood clearance | sustained retention | CC(C)NCCCn1c(Sc2cc3c(cc2I)OCO3)nc2c(N)ncnc21 [PUH71] | – | pulmonary consolidation had resolved
